± gives the expanded uncertainty stated by the source.
Experiment: xn = mol fraction of the nth substance listed
Details: 100.8 kPa, Liquid

CC(C)(C)O [2-methylpropan-2-ol] + CC(C)CC(C)(C)C
viscosity (308.15 K, x1 = 0.15): 0.447 ± 0.018 mPa·s
mass density (308.15 K, x1 = 0.2): 688.28 ± 0.33 kg/m3
viscosity (308.15 K, x1 = 0.2): 0.478 ± 0.018 mPa·s
mass density (308.15 K, x1 = 0.25): 691.11 ± 0.33 kg/m3
viscosity (308.15 K, x1 = 0.25): 0.48 ± 0.018 mPa·s
mass density (308.15 K, x1 = 0.3): 694.14 ± 0.33 kg/m3
viscosity (308.15 K, x1 = 0.3): 0.522 ± 0.019 mPa·s
mass density (308.15 K, x1 = 0.35): 697.38 ± 0.33 kg/m3
viscosity (308.15 K, x1 = 0.35): 0.523 ± 0.019 mPa·s
mass density (308.15 K, x1 = 0.4): 700.8 ± 0.33 kg/m3
viscosity (308.15 K, x1 = 0.4): 0.564 ± 0.02 mPa·s
mass density (308.15 K, x1 = 0.45): 704.42 ± 0.32 kg/m3
viscosity (308.15 K, x1 = 0.45): 0.59 ± 0.021 mPa·s
mass density (308.15 K, x1 = 0.5): 708.24 ± 0.32 kg/m3
viscosity (308.15 K, x1 = 0.5): 0.633 ± 0.022 mPa·s
mass density (308.15 K, x1 = 0.55): 712.37 ± 0.32 kg/m3
viscosity (308.15 K, x1 = 0.55): 0.672 ± 0.023 mPa·s
mass density (308.15 K, x1 = 0.6): 716.85 ± 0.32 kg/m3
viscosity (308.15 K, x1 = 0.6): 0.726 ± 0.024 mPa·s
mass density (308.15 K, x1 = 0.65): 721.69 ± 0.32 kg/m3
viscosity (308.15 K, x1 = 0.65): 0.786 ± 0.026 mPa·s
mass density (308.15 K, x1 = 0.7): 727.03 ± 0.32 kg/m3
viscosity (308.15 K, x1 = 0.7): 0.866 ± 0.028 mPa·s
mass density (308.15 K, x1 = 0.75): 732.81 ± 0.32 kg/m3
viscosity (308.15 K, x1 = 0.75): 0.994 ± 0.031 mPa·s
mass density (308.15 K, x1 = 0.8): 739.1 ± 0.32 kg/m3
viscosity (308.15 K, x1 = 0.8): 1.14 ± 0.036 mPa·s
mass density (308.15 K, x1 = 0.85): 745.89 ± 0.32 kg/m3
viscosity (308.15 K, x1 = 0.85): 1.332 ± 0.042 mPa·s
mass density (308.15 K, x1 = 0.9): 753.43 ± 0.32 kg/m3
viscosity (308.15 K, x1 = 0.9): 1.622 ± 0.051 mPa·s
mass density (308.15 K, x1 = 0.95): 761.62 ± 0.31 kg/m3
viscosity (308.15 K, x1 = 0.95): 2.02 ± 0.064 mPa·s
mass density (308.15 K, x1 = 1): 770.7 ± 0.31 kg/m3
viscosity (308.15 K, x1 = 1): 2.622 ± 0.083 mPa·s
mass density (318.15 K, x1 = 0.05): 672.12 ± 0.34 kg/m3
viscosity (318.15 K, x1 = 0.05): 0.377 ± 0.016 mPa·s
mass density (318.15 K, x1 = 0.1): 674.11 ± 0.34 kg/m3
viscosity (318.15 K, x1 = 0.1): 0.4 ± 0.017 mPa·s
mass density (318.15 K, x1 = 0.15): 676.56 ± 0.34 kg/m3
viscosity (318.15 K, x1 = 0.15): 0.394 ± 0.017 mPa·s
mass density (318.15 K, x1 = 0.2): 679.2 ± 0.33 kg/m3
viscosity (318.15 K, x1 = 0.2): 0.413 ± 0.017 mPa·s
mass density (318.15 K, x1 = 0.25): 681.96 ± 0.33 kg/m3
viscosity (318.15 K, x1 = 0.25): 0.42 ± 0.017 mPa·s
